Columns and labels:
[1] = target: 25P Btk enzyme (un-activated full-length Btk) (Homo sapiens (Human), UniProt Q06187); assay: 25P Btk Enzyme Activity Assay (LANCE TR-FRET); assay type: biochemical; conditions: un-activated Btk (25P), 25 μM ATP, 60 minute compound and enzyme incubation; read-out: Btk binding IC50 (nM) with 25 P
Procedure: Preparation of Un-Activated Btk Enzyme (25P Btk)
Un-activated full-length Btk recombinant protein was purified from baculovirus-transfected Sf21 cells. […] This protein represents the un-activated state of the Btk enzyme.
25P Btk Enzyme Activity Assay
Btk enzymatic activity was determined with the LANCE (Lanthanide Chelate Excite) TR-FRET (lime-resolved fluorescence resonance energy transfer) assay. […] To each well of a black non-binding surface Corning 384-well microplate (Corning Catalog #3820), 5 nL of compound (2000 fold dilution in final assay volume of 10 μL) was dispensed, followed by the addition of 7.5 μL of 1× kinase buffer (50 mM Hepes 7.5, 10 mM MgCl2, 0.01% Brij-35, 1 mM EGTA, 0.05% BSA and 1 mM DTT) containing 26.67 pg/μL (266.7 pM) of 25P Btk enzyme (recombinant protein from baculovirus-transfected Sf9 cells: full-length Btk; MW=79378 Da). Following a 60 minute compound and enzyme incubation, each reaction was initiated by the addition of 2.5 μL 1× kinase buffer containing 8 μM biotinylated “A5” peptide (Biotin-EQEDEPEGDYFEWLE-NH2), and 100 μM ATP. The final reaction in each well of 10 consists of 200 pM 25P Btk, 2 μM biotin-A5-peptide, and 25 μM ATP. Phosphorylation reactions were allowed to proceed for 120 minutes. Reactions were immediately quenched by the addition of 20 uL of 1× quench buffer (15 mM EDTA, 25 mM Hepes 7.3, and 0.1% Triton X-100) containing detection reagents (0.626 nM of LANCE-Eu-W1024-anti-phosphoTyrosine antibody, PerkinElmer and 86.8 nM of Streptavidin-conjugated Dylight 650, Dyomics/ThermoFisher Scientific). After 60 minutes incubation with detection reagents, reaction plates were read on a PerkinElmer EnVision plate reader using standard TR-FRET protocol. Briefly, excitation of donor molecules (Eu-chelate:anti-phospho-antibody) with a laser light source at 337 nm produces energy that can be transferred to Dylight-650 acceptor molecules if this donor:acceptor pair is within close proximity. Fluorescence intensity at both 665 nm (acceptor) and 615 nm (donor) are measured and a TR-FRET ratio calculated for each well (acceptor intensity/donor intensity). IC50 values were determined by 4 parameter robust fit of TR-FRET ratio values vs. (Log10) compound concentrations.

[2] = target: 100P Btk enzyme (activated full-length Btk) (Homo sapiens (Human), UniProt Q06187); assay: 100P Btk Enzyme Activity Assay (LANCE TR-FRET); assay type: biochemical; conditions: activated Btk (100P), 25 μM ATP, 60 minute compound and enzyme incubation; top concentration 1000 nM; read-out: Btk binding IC50 (nM) with 100 P
Sequence of 100P Btk enzyme (activated full-length Btk) (Q06187 whole entry): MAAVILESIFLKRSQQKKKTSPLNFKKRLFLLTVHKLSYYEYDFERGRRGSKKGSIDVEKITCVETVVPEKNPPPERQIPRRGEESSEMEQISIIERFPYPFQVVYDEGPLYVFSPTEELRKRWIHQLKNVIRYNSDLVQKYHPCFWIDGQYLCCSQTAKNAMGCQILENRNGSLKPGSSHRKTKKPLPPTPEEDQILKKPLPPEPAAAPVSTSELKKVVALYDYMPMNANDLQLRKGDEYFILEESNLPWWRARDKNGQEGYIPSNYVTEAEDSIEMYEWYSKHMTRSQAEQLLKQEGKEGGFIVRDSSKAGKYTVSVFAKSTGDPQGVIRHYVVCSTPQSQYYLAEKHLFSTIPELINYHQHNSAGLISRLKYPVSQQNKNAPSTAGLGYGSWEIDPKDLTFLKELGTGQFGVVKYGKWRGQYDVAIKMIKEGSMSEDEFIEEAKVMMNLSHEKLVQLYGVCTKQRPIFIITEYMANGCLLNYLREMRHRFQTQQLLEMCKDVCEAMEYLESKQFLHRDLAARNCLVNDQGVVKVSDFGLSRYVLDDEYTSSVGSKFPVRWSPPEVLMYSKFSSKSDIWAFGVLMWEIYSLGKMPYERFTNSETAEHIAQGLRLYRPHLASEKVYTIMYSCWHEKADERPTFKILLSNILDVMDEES
Procedure: Activated full-length Btk recombinant enzyme was expressed and purified in the same manner as the […] enzyme, except an auto-phosphorylation step was added to the purification scheme. […] This protein represents the activated state of the Btk enzyme. […] Btk Enzyme Activity Assay Btk enzymatic activity was determined with the LANCE (Lanthanide Chelate Excite) TR-FRET (lime-resolved fluorescence resonance energy transfer) assay. […] MW=79378 Da). […] Phosphorylation reactions were allowed to proceed for 45 minutes. […] After 60 minutes incubation with detection reagents, reaction plates were read on a PerkinElmer EnVision plate reader using standard TR-FRET protocol. Briefly, excitation of donor molecules (Eu-chelate:anti-phospho-antibody) with a laser light source at 337 nm produces energy that can be transferred to Dylight-650 acceptor molecules if this donor:acceptor pair is within close proximity. Fluorescence intensity at both 665 nm (acceptor) and 615 nm (donor) are measured and a TR-FRET ratio calculated for each well (acceptor intensity/donor intensity). […] (Log10) compound concentrations.

Sequence of 25P Btk enzyme (un-activated full-length Btk) (Q06187 whole entry): as above

Row | IC50 [1] | IC50 [2] | Compound
1 | 0.073 nM | 5.3 nM | Cn1cc(-c2cc(-c3cccc(-n4ncc5cc(C(C)(C)C)cc(F)c5c4=O)c3CO)cc3c(N)n[nH]c23)cn1 [Example 9, 2-{3-[3-amino-7-(1-methyl-1H-pyrazol-4-yl)-1H-indazol-5-yl]-2-(hydroxymethyl)phenyl}-6-tert-butyl-8-fluorophthalazin-1(2H)-one]
2 | 0.8 nM | 299 nM | CC(C)(C)c1cc(F)c2c(=O)n(-c3cccc(-c4cc(-c5cccnc5)c5[nH]nc(N)c5c4)c3CO)ncc2c1 [Example 10, 2-[3-(3-amino-7-pyridin-3-yl-1H-indazol-5-yl)-2-(hydroxymethyl)phenyl]-6-tert-butyl-8-fluorophthalazin-1(2H)-one]
3 | 0.16 nM | 29.3 nM | CNC(=O)c1cc(-c2cccc(-n3ncc4cc(C(C)(C)C)cc(F)c4c3=O)c2CO)cc2c(N)n[nH]c12 [Example 11, 3-amino-5-[3-(6-tert-butyl-8-fluoro-1-oxophthalazin-2(1H)-yl)-2-(hydroxymethyl)phenyl]-N-methyl-1H-indazole-7-carboxamide]
4 | 0.49 nM | 145 nM | CC(C)(C)c1cc(F)c2c(c1)CCN(c1cccc(-c3cc(C(N)=O)c4[nH]nc(N)c4c3)c1CO)C2=O [Example 16, 3-amino-5-[3-(6-tert-butyl-8-fluoro-1-oxo-3,4-dihydroisoquinolin-2(1H)-yl)-2-(hydroxymethyl)phenyl]-1H-indazole-7-carboxamide]
5 | 0.16 nM | 13 nM | CC(C)n1ccc(-c2cc(-c3cccc(-n4ncc5cc(C(C)(C)C)cc(F)c5c4=O)c3CO)cc3c(N)n[nH]c23)n1 [Example 17, 2-[3-{3-amino-7-[1(1-methylethyl)-1H-pyrazol-3-yl]-1H-indazol-5-yl}-2-(hydroxymethyl)phenyl]-6-tert-butyl-8-fluorophthalazin-1(2H)-one]
6 | 0.13 nM | 11.6 nM | Cn1cc(-c2cc(-c3cccc(NC(=O)c4cc5c(s4)CCCC5)c3CO)cc3c(N)n[nH]c23)cn1 [Example 18, N-{3-[3-amino-7-(1-methyl-1H-pyrazol-4-yl)-1H-indazol-5-yl]-2-(hydroxymethyl)phenyl}-4,5,6,7-tetrahydro-1-benzothiophene-2-carboxamide]
7 | 0.48 nM | 429 nM | CC(C)(C)c1cc(F)c2c(=O)n(-c3cccc(-c4cc(-c5ccccc5)c5[nH]nc(N)c5c4)c3CO)ncc2c1 [Example 19, 2-[3-(3-amino-7-phenyl-1H-indazol-5-yl)-2-(hydroxymethyl)phenyl]-6-tert-butyl-8-fluorophthalazin-1(2H)-one]
8 | 9.5 nM | 801 nM | CC(C)(C)c1cc(F)c2c(=O)n(-c3cccc(-c4cc5c(N)n[nH]c5cn4)c3CO)ncc2c1 [Example 21, 2-[3-(3-amino-1H-pyrazolo[3,4-c]pyridin-5-yl)-2-(hydroxymethyl)phenyl]-6-tert-butyl-8-fluorophthalazin-1(2H)-one]
9 | 0.11 nM | 17.4 nM | CC(C)(C)c1cc(F)c2c(=O)n(-c3cccc(-c4cc(-c5ccccn5)c5[nH]nc(N)c5c4)c3CO)ncc2c1 [Example 22, 2-(3-(3-amino-7-(pyridin-2-yl)-1H-indazol-5-yl)-2-(hydroxymethyl)phenyl)-6-(tert-butyl)-8-fluorophthalazin-1(2H)-one]
10 | 0.18 nM | 20 nM | CC(C)(C)c1cc(F)c2c(=O)n(-c3cccc(-c4cc(-c5cnn(CC(=O)O)c5)c5[nH]nc(N)c5c4)c3CO)ncc2c1 [Example 23, 2-(4-(3-amino-5-(3-(6-(tert-butyl)-8-fluoro-1-oxophthalazin-2(1H)-yl)-2-(hydroxymethyl)phenyl)-1H-indazol-7-yl)-1H-pyrazol-1-yl)acetic acid]
11 | 0.28 nM | 31.5 nM | CC(C)(C)c1cc(F)c2c(=O)n(-c3cccc(-c4cc(-c5cnn(C(C)(C)C(=O)O)c5)c5[nH]nc(N)c5c4)c3CO)ncc2c1 [Example 24, 2-(4-(3-amino-5-(3-(6-(tert-butyl)-8-fluoro-1-oxophthalazin-2(1H)-yl)-2-(hydroxymethyl)phenyl)-1H-indazol-7-yl)-1H-pyrazol-1-yl)-2-methylpropanoic acid]
12 | 0.18 nM | 2.6 nM | CC(C)(C)c1cc(F)c2c(=O)n(-c3cccc(-c4cc(-c5cnn(C6CCOCC6)c5)c5[nH]nc(N)c5c4)c3CO)ncc2c1 [Example 25, 2-(3-(3-amino-7-(1-(tetrahydro-2H-pyran-4-yl)-1H-pyrazol-4-yl)-1H-indazol-5-yl)-2-(hydroxymethyl)phenyl)-6-(tert-butyl)-8-fluorophthalazin-1(2H)-one]
13 | 0.096 nM | 5.3 nM | COCCn1cc(-c2cc(-c3cccc(-n4ncc5cc(C(C)(C)C)cc(F)c5c4=O)c3CO)cc3c(N)n[nH]c23)cn1 [Example 26, 2-(3-(3-amino-7-(1-(2-methoxyethyl)-1H-pyrazol-4-yl)-1H-indazol-5-yl)-2-(hydroxymethyl)phenyl)-6-(tert-butyl)-8-fluorophthalazin-1(2H)-one]
14 | 0.43 nM | 69.5 nM | Cc1nn(C)cc1-c1cc(-c2cccc(-n3ncc4cc(C(C)(C)C)cc(F)c4c3=O)c2CO)cc2c(N)n[nH]c12 [Example 27, 2-(3-(3-amino-7-(1,3-dimethyl-1H-pyrazol-4-yl)-1H-indazol-5-yl)-2-(hydroxymethyl)phenyl)-6-(tert-butyl)-8-fluorophthalazin-1(2H)-one]
15 | 1.7 nM | 360 nM | CC(C)(C)c1cc(F)c2c(=O)n(-c3cccc(-c4cc(-c5cnn6c5CCCC6)c5[nH]nc(N)c5c4)c3CO)ncc2c1 [Example 28, 2-(3-(3-amino-7-(4,5,6,7-tetrahydropyrazolo[1,5-a]pyridin-3-yl)-1H-indazol-5-yl)-2-(hydroxymethyl)phenyl)-6-(tert-butyl)-8-fluorophthalazin-1(2H)-one]

— US10246457B2, “Indazole and azaindazole Btk inhibitors” (MERCK SHARP & DOHME CORP., priority 2015, dated 2019)
